According to patent publication US10750742B2, “Pesticidally active pyrazole derivatives” (SYNGENTA PARTICIPATIONS AG, priority 2015, dated 2020):
Where two headings read alike, the source gives them in different places.

How the values were obtained:
Format in all cases: in vivo
[1] = tested on: Spodoptera littoralis; test: Spodoptera littoralis (Egyptian cotton leaf worm), cotton leaf disc spray test; conditions: foliar, 72 h, read-out: control (at least one of mortality, anti-feedant effect, growth inhibition); for percent control (mortality, anti-feedant effect or growth inhibition) at 200 ppm: application rate 200 ppm, L1 larvae, 3 days after infestation
In short: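 Five first-instar larvae per disc were placed on dried, sprayed cotton leaf discs held on agar. Test solutions were aqueous, made from 10′000 ppm DMSO stocks. At day 3, control was counted when mortality, feeding deterrence or growth inhibition exceeded the untreated discs.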

[2] = tested on: Thrips tabaci; test: Thrips tabaci (onion thrips), sunflower leaf disc test; conditions: foliar, 144 h, read-out: control (mortality)
Description: Thrips tabaci (Onion Thrips):
(§1) Sunflower leaf discs were placed on agar in 24-well microtiter plates and sprayed with aqueous test solutions prepared from 10′000 ppm DMSO stock solutions. After drying the leaf discs were infested with a thrips population of mixed ages. The samples were assessed for mortality 6 days after infestation.

[3] = tested on: Euschistus heros; test: Euschistus heros (neotropical brown stink bug), soybean leaf test; conditions: 120 h, read-out: effect in at least one of the two categories (mortality or growth inhibition); for percent effect (mortality or growth inhibition) at 200 ppm: application rate 200 ppm, N2 nymphs, 5 days after infestation
Description: Euschistus heros (Neotropical Brown Stink Bug):
Soybean leaves on agar in 24-well microtiter plates were sprayed with aqueous test solutions prepared from 10′000 ppm DMSO stock solutions. After drying the leaves were infested with N2 nymphs. The samples were assessed for mortality and growth inhibition in comparison to untreated samples 5 days after infestation.

[4] = tested on: Plutella xylostella; test: Plutella xylostella (diamond back moth), artificial diet test; conditions: 120 h, read-out: control (mortality and growth inhibition)
Description: Plutella xylostella (Diamond Back Moth):
24-well microtiter plates with artificial diet were treated with aqueous test solutions prepared from 10′000 ppm DMSO stock solutions by pipetting. After drying, the plates were infested with L2 larvae (10 to 15 per well). The samples were assessed for mortality and growth inhibition in comparison to untreated samples 5 days after infestation.

[5] = tested on: Thrips tabaci; test: Comparison: insecticidal activity against Thrips tabaci, sunflower leaf discs; conditions: Thrips tabaci, foliar, 144 h, 6 days after infestation, read-out: Mortality (%)
Description: Biological Comparison Data:
Compound A and B are disclosed in WO2014/122083 as example (Ic-1) (p. 76) and (lc-2) (p. 82, Table 3). The activities of compounds A and B to treat different pests are compared with the activities of compound 4, 6, 15 and 35 according to the present invention. The tests are carried out at different concentrations (ppm).
b) Insecticidal Activity Against Thrips tabaci (Onion Thrips):
as §1

[6] = tested on: Tetranychus urticae; test: Tetranychus urticae (two-spotted spider mite), bean leaf disc test; conditions: foliar, 192 h, read-out: control (mortality on mixed population, mobile stages)
Description: Tetranychus urticae (Two-Spotted Spider Mite):
Bean leaf discs on agar in 24-well microtiter plates were sprayed with aqueous test solutions prepared from 10′000 ppm DMSO stock solutions. After drying the leaf discs were infested with a mite population of mixed ages. The samples were assessed for mortality on mixed population (mobile stages) 8 days after infestation.

[7] = tested on: Myzus persicae; test: Myzus persicae (green peach aphid), sunflower leaf disc spray test; conditions: foliar, 144 h
Description: Myzus persicae (Green Peach Aphid):
Sunflower leaf discs were placed on agar in a 24-well microtiter plate and sprayed with test solutions at an application rate of 200 ppm. After drying, the leaf discs were infested with an aphid population of mixed ages. After an incubation period of 6 DAT, samples were checked for mortality. The following compounds gave at least 80% mortality of Myzus persicae: compounds 1,2, 3, 4, 5, 6, 11, 12, 15, 17, 18, 19, 20, 23, 24, 25, 26, 27, 30, 32, 33, 34 35, 41, 43, 44, 47, 50, 55, 58, 59, 60, 61, 62, 63, 64, 65 and 66.

[8] = tested on: Diabrotica balteata; test: Diabrotica balteata (corn root worm), maize sprout test; conditions: 96 h, read-out: control (mortality and growth inhibition)
Description: Diabrotica balteata, (Corn Root Worm)
Maize sprouts, placed on an agar layer in 24-well microtiter plates were treated with aqueous test solutions prepared from 10′000 ppm DMSO stock solutions by spraying. After drying, the plates were infested with L2 larvae (6 to 10 per well). The samples were assessed for mortality and growth inhibition in comparison to untreated samples 4 days after infestation.

[9] = tested on: Myzus persicae; test: Myzus persicae (green peach aphid), sucrose solution / Parafilm test; conditions: 120 h
In short: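 Compound mixed into sucrose solution at 12.5 ppm under stretched Parafilm; aphid-infested pea seedlings set on the membrane and plate inverted so insects feed through it. Mortality assessed 5 days after infestation.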

[10] = application rate 200 ppm, mixed ages, 6 days after infestation
[11] = application rate 200 ppm, L2 larvae, 5 days after infestation
[12] = application rate 200 ppm, 8 days after infestation
[13] = application rate 200 ppm, mixed ages, 6 DAT, read-out: mortality
[14] = application rate 200 ppm, L2 larvae, 4 days after infestation
[15] = test rate of 12 ppm, sucrose solution, 5 days after infestation, read-out: mortality

SMILES | percent control (mortality, anti-feedant effect or growth inhibition) at 200 ppm [1] | mortality at 200 ppm [2, 10] | percent effect (mortality or growth inhibition) at 200 ppm [3] | mortality at 200 ppm [4, 11] | mortality at 200 ppm [6, 12] | mortality at 200 ppm [7, 13] | mortality at 200 ppm [8, 14] | mortality at 12 ppm [9, 15] | other results
Cn1nc(OC(F)C(F)(F)C(F)(F)F)c(C(F)(F)F)c1-n1cc(-c2ccc(Cl)c(C(=O)NC3(C#N)CC3)c2)cn1 (centres unmarked) [compound 4] | ≥ 80% | ≥ 80% | ≥ 80% | ≥ 80% | ≥ 80% | ≥ 80% | ≥ 80% | ≥ 80% | mortality at 0.05 ppm ([5]; 0.05 ppm): 65%; mortality at 0.2 ppm ([5]; 0.2 ppm): 90%; mortality at 0.8 ppm ([5]; 0.8 ppm): 100%; mortality at 3 ppm ([5]; 3 ppm): 100%; mortality at 12.5 ppm [5]: 100%
Cn1nc(OC(F)(F)C(F)OC(F)(F)F)c(C(F)(F)F)c1-n1cc(-c2ccc(Cl)c(C(=O)NC3(C#N)CC3)c2)cn1 (centres unmarked) [compound 15] | ≥ 80% | ≥ 80% | ≥ 80% | ≥ 80% | ≥ 80% | ≥ 80% | ≥ 80% | ≥ 80% | mortality at 0.781 ppm ([5]; 0.781 ppm): 0%; mortality at 3.12 ppm ([5]; 3.12 ppm): 90%; mortality at 12.5 ppm [5]: 90%; mortality at 50 ppm ([5]; 50 ppm): 100%; mortality at 200 ppm ([5]; 200 ppm): 100%
Cn1nc(OCC(F)(F)C(F)(F)C(F)(F)C(F)F)c(C(F)(F)F)c1-n1cc(-c2ccc(Cl)c(C(=O)NC3CC3)c2)cn1 [compound 27] |  |  |  |  |  |  |  |  | mortality at 200 ppm [1]: ≥ 80%; mortality at 200 ppm [2]: ≥ 80%; percent control (mortality or growth inhibition) at 200 ppm [3]: ≥ 80%; mortality at 200 ppm [4]: ≥ 80%; mortality at 200 ppm [6]: ≥ 80%; mortality at 200 ppm [7]: ≥ 80%; mortality at 200 ppm [8]: ≥ 80%; mortality at 12 ppm [9]: ≥ 80%
Cn1nc(OCC(F)(F)C(F)F)c(C(F)(F)F)c1-n1cc(-c2ccc(Cl)c(C(=O)NC3(C#N)CC3)c2)cn1 [compound 30] | ≥ 80% | ≥ 80% | ≥ 80% | ≥ 80% | ≥ 80% | ≥ 80% | ≥ 80% | ≥ 80% | 
Cn1nc(OCC(F)(F)C(F)(F)F)c(C(F)(F)F)c1-n1cc(-c2ccc(Cl)c(C(=O)NC3CC3)c2)cn1 [compound 32] | ≥ 80% | ≥ 80% | ≥ 80% | ≥ 80% | ≥ 80% | ≥ 80% | ≥ 80% | ≥ 80% | 
Cn1nc(OCC(F)(F)C(F)F)c(C(F)(F)F)c1-n1cc(-c2ccc(Cl)c(C(=O)NC3CC3)c2)cn1 [compound 33] | ≥ 80% | ≥ 80% | ≥ 80% | ≥ 80% | ≥ 80% | ≥ 80% | ≥ 80% | ≥ 80% | 
Cn1nc(OC(F)(F)C(F)Br)c(C(F)(F)F)c1-n1cc(-c2ccc(Cl)c(C(=O)NC3(C#N)CC3)c2)cn1 (centres unmarked) [compound 47] | ≥ 80% | ≥ 80% | ≥ 80% | ≥ 80% | ≥ 80% | ≥ 80% | ≥ 80% | ≥ 80% | 
Cn1nc(OC(F)(F)C(F)(C(F)=C(F)C(F)(F)F)C(F)(F)F)c(C(F)(F)F)c1-n1cc(-c2ccc(Cl)c(C(=O)NC3(C#N)CC3)c2)cn1 (centres unmarked) [compound 50] | ≥ 80% | ≥ 80% | ≥ 80% | ≥ 80% | ≥ 80% | ≥ 80% | ≥ 80% | ≥ 80% | 
CN(C(=O)c1cc(-c2cnn(-c3c(C(F)(F)F)c(OC(F)(F)C(F)C(F)(F)F)nn3C)c2)ccc1Cl)C1(C#N)CC1 (centres unmarked) [compound 55] | ≥ 80% | ≥ 80% | ≥ 80% | ≥ 80% | ≥ 80% | ≥ 80% | ≥ 80% | ≥ 80% | 
Cn1nc(OC(F)(F)C(F)C(F)(F)F)c(C(F)(F)F)c1-n1cc(-c2ccc(F)c(C(=O)NC3(C#N)CC3)c2)cn1 (centres unmarked) [compound 59] | ≥ 80% | ≥ 80% | ≥ 80% | ≥ 80% | ≥ 80% | ≥ 80% | ≥ 80% | ≥ 80% | 
Cn1nc(OC(F)(F)C(F)C(F)(F)F)c(C(F)(F)F)c1-n1cc(-c2ccc(F)c(C(=O)NC3CC3)c2)cn1 (centres unmarked) [compound 60] | ≥ 80% | ≥ 80% | ≥ 80% | ≥ 80% | ≥ 80% | ≥ 80% | ≥ 80% | ≥ 80% | 
